pIC50: −log10 of the molar value.
Target: Transcription factor Sp1 (Homo sapiens, UniProt P08047)
Experiment: Inhibition of Sp1 (unknown origin) by luciferase reporter gene assay

Sequence of Transcription factor Sp1 (P08047 whole entry): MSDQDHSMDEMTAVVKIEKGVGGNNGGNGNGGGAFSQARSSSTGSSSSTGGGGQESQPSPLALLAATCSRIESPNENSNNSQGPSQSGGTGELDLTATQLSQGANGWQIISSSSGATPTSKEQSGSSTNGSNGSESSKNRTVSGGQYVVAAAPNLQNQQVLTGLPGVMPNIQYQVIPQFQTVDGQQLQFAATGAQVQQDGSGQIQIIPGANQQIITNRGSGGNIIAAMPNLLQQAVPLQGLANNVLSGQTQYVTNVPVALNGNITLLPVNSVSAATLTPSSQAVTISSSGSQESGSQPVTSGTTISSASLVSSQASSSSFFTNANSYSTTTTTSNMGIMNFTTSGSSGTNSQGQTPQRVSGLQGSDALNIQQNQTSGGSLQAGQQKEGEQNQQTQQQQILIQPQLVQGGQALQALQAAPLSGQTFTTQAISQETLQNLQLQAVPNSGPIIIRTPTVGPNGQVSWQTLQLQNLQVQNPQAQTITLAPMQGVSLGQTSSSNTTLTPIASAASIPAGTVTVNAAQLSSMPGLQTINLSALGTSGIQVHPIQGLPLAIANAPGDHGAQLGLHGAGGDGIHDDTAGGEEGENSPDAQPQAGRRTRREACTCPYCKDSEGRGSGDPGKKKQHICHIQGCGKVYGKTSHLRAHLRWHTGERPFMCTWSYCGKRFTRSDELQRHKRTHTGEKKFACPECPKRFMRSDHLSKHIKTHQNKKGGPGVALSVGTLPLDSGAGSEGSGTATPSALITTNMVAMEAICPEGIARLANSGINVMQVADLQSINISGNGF

pIC50	SMILES
4.24	O=C(N/N=C/c1ccccc1)c1ccc(F)cc1
4.52	C=C1C(=O)O[C@H]2[C@H]1CC/C(C)=C/CC[C@@]1(C)O[C@@H]21 [PARTHENOLIDE]
